Structures are written as SMILES.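 96-well plates; 48 h exposure; 5 concentrations. Endpoints by linear interpolation between flanking doses. Not reached: highest tested concentration assigned. GI50 marks 50% less growth. TGI denotes the concentration required for complete inhibition of growth.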 Some results are limits rather than exact numbers.

This passage reports TGI and GI50 results from PubChem BioAssay (NCI).

Common to all, as to assay: NCI anticancer screen, dose series, 48 h
In assay [1] the test system is ACHN renal.
Assay [2] deals with HS 578T breast.
Assay [3] concerns K-562 leukemia.
Assay [4] concerns MCF7 breast.
The test system of assay [5] is MDA-MB-435.
Assay [6] concerns MOLT-4 leukemia.
The subject of assay [7] is NCI/ADR-RES ovarian.
Assay [8] concerns PC-3 prostate.
In assay [9] the test system is UACC-257 melanoma.
Assay [10] relates to UACC-62 melanoma.

Regarding `O=C1CCCC2=C1CC1=C(CCCC1=O)N2c1ccc(Cl)cc1`, the TGI in assay [1], in assay [2], in assay [3], in assay [4], in [5] and in assay [6] was over 100 µM throughout. Besides, the TGI in assay [7], in [8], in assay [9] and in [10] was over 100 µM in each case.

Take `O=C1c2ccccc2C(=O)N1c1ccc(Cc2ccc(N3C(=O)c4ccccc4C3=O)cc2)cc1`: the TGI in [1], in assay [2], in assay [3], in [4], in assay [5] and in assay [6] was over 100 µM each time. Also, the TGI in assay [7], in [8], in assay [9] and in assay [10] was over 100 µM each time.

As to `CN(c1cccc(C(=O)O)c1)c1cc(O/N=[N+](\[O-])N(C)C)c([N+](=O)[O-])cc1[N+](=O)[O-]`, the GI50 is over 100 µM in assay [1]; over 100 µM in [2]; 78.8 µM in [3]; 59.8 µM in [4]; over 100 µM in assay [5]; over 100 µM in assay [6]. Also, the GI50 in [7], in assay [8], in assay [9] and in assay [10] was over 100 µM in each case. For the same compound, the TGI in [1], in assay [2], in assay [3], in [4], in assay [5] and in assay [6] was over 100 µM in each case. In addition, the TGI in [7], in [8], in [9] and in assay [10] was over 100 µM throughout.

Take `O=C(O)CCCN1C(=O)/C(=C/C(Cl)=C/c2ccccc2)SC1=S`: the GI50 in assay [1] is 1.2 µM; in assay [2], 2.73 µM; in assay [3], 1.52 µM; in assay [4] it was 0.6 µM; in assay [5], 1.94 µM; in assay [6], 0.591 µM. Further, the GI50 was 2.39 µM in assay [7], 2.23 µM in assay [8], 1.75 µM in [9] and 1.47 µM in assay [10]. In addition, the TGI in assay [1] worked out at 4.4 µM; in assay [2] it was 10.6 µM; in assay [3], 16.3 µM; in assay [4], 11.4 µM; in [5] it was 5.96 µM; in [6] it was 11.9 µM. In addition, the TGI in assay [7] worked out at 9.35 µM; in assay [8], 10.3 µM; in assay [9], 6.8 µM; in assay [10], 3.62 µM.

For the compound `O=C(CSSCC(=O)c1ccc(Cl)cc1)c1ccc(Cl)cc1`, the GI50 in assay [1] was 8.75 µM; in assay [2], 7.51 µM; in assay [3], 3.28 µM; in assay [4], 3.76 µM; in assay [5], 2.57 µM; in assay [6], 3.28 µM. For the same compound, the GI50 in assay [7] was 2.69 µM; in assay [8] it was 6.12 µM; in assay [9], 5.18 µM; in assay [10] it was 3.1 µM. Besides, the TGI is 24.1 µM in assay [1]; over 100 µM in assay [2]; over 100 µM in assay [3]; 17.8 µM in assay [4]; 11 µM in [5]; over 100 µM in assay [6]. The TGI in [7] was 13.1 µM; in assay [8], 30.5 µM; in assay [9], 34.4 µM; in assay [10] it was 14.5 µM.

As for `O=C(Nc1cc(Cl)c(I)c(Cl)c1)C(F)(F)F`, the TGI in assay [1] was over 100 µM; in assay [2] it was 75.7 µM; in [3], 81.8 µM; in [4] it was over 100 µM; in assay [5] it was over 100 µM; in assay [6], 82.7 µM. The TGI was over 100 µM in assay [7], 83.8 µM in [8], over 100 µM in [9] and 48.9 µM in assay [10].

With `Nc1n[n+]([O-])c2ccc(Cl)cc2[n+]1[O-]`, the TGI in [1] was over 100 µM; in assay [2] it was over 100 µM; in assay [3], over 100 µM; in assay [4], over 100 µM; in [5], 74.2 µM; in assay [6], over 100 µM. The TGI in [7] is over 100 µM; in assay [8], over 100 µM; in [9] it was 54.3 µM.

In the case of `Nc1c(C(=O)c2cccc(-c3cccnc3)c2)cnn1-c1ccc(F)cc1`, the GI50 in assay [1], in assay [2], in assay [3], in assay [4], in assay [5] and in [6] was over 25 µM throughout. In addition, the GI50 in assay [7] was over 20.5 µM; in assay [8], over 25 µM; in assay [9], over 25 µM; in assay [10] it was over 25 µM. Further, the TGI in assay [1], in assay [2], in assay [3], in [4], in assay [5] and in [6] was over 25 µM in each case. Further, the TGI in assay [7], in assay [8], in assay [9] and in assay [10] was over 25 µM throughout.

On to `CCCC(=O)Oc1ccc(/C(=C(\C)c2ccc(Cl)cc2)c2ccc(OCCN(CC)CC)cc2)cc1`, for which the GI50 in assay [1] is 3.39 µM; in assay [2], 2.68 µM; in [3], 2.08 µM; in assay [4], 0.117 µM; in [5], 1.78 µM; in assay [6], 3.09 µM. The GI50 in assay [7] is 4.25 µM; in [8], 0.56 µM; in assay [9], 2.02 µM; in [10] it was 2.06 µM. Besides, the TGI in assay [1] turned out to be 11.9 µM; in assay [2], 9.33 µM; in assay [3], 5.09 µM; in assay [4], 3.47 µM; in assay [5], 3.68 µM; in assay [6] it was 10.5 µM. Also, the TGI in [7] was 16.5 µM; in [8], 14.1 µM; in [9], 4.18 µM; in [10], 4.04 µM.

In the case of `O=C(O)c1cccc([As]=[As]c2cccc(C(=O)O)c2)c1` (centres undefined), the TGI in [1] was over 100 µM; in assay [2], 90.8 µM; in assay [3], over 100 µM; in assay [4] it was over 100 µM; in assay [5], over 100 µM; in [6], 95.1 µM. Further, the TGI was over 100 µM in assay [7], 36.7 µM in [8], over 100 µM in assay [9] and over 100 µM in assay [10].
